Laboratory results reported in patent publication US10487093B2, “Heterocyclic compounds, in particular 2-oxo-4,4,5,5,6,6,7,7-octahydrobenzoxazole derivatives, and their use as antibacterial compounds” (priority 2016, dated 2019).
≈ marks a conversion by molar mass, not a printed value.

Key:
[1] = test system: Acinetobacter baumannii NCTC 13420; assay: MIC, broth microdilution (CLSI) versus planktonic bacteria; format: cell-based; details: NCTC13420; Acinetobacter baumannii NCTC 13420; 16-20 h; mode of three independent experiments; read-out: MIC, Ab NCTC 13420
[2] = test system: Enterobacter cloacae NCTC 13406; assay: as above; format: cell-based; details: NCTC13406; Enterobacter cloacae NCTC 13406; 16-20 h; mode of three independent experiments; read-out: MIC, Ecl NCTC 13406
[3] = test system: Escherichia coli ATCC 25922; assay: as above; format: cell-based; details: ATCC25922; Escherichia coli ATCC 25922; 16-20 h; mode of three independent experiments; read-out: MIC, Ec ATCC 25922
[4] = test system: Haemophilus influenzae ATCC 49247; assay: as above; format: cell-based; details: ATCC49247; Haemophilus influenzae ATCC 49247; 16-20 h; mode of three independent experiments; read-out: MIC, Hi ATCC 49247
[5] = test system: Mycobacterium smegmatis ATCC 19420; assay: as above; format: cell-based; details: Mycolicibacterium smegmatis, ATCC19420, 16-20 h, mode of three independent experiments, read-out: MIC, Ms ATCC 19420
[6] = test system: Pseudomonas aeruginosa ATCC 27853; assay: as above; format: cell-based; details: ATCC27853; Pseudomonas aeruginosa ATCC 27853; 16-20 h; mode of three independent experiments; read-out: MIC, Pa ATCC 27853
[7] = test system: Staphylococcus aureus ATCC 29213; assay: as above; format: cell-based; details: ATCC29213; Staphylococcus aureus ATCC 29213; 16-20 h; mode of three independent experiments; read-out: MIC, Sa ATCC 29213
[8] = test system: Streptococcus pneumoniae ATCC 49619; assay: as above; format: cell-based; details: ATCC49619; Streptococcus pneumoniae ATCC 49619; 16-20 h; mode of three independent experiments; read-out: MIC, Sp ATCC 49619
[9] = test system: human hepatic cell line (HepG2 ATCC HB-8065); assay: Human cell viability assay (CellTiter-Glo); details: Homo sapiens, HepG2, 24 h, read-out: IC50 (μg/mL) HepG2
[10] = test system: Acinetobacter baumannii ATCC 19606; assay: MIC, broth microdilution (CLSI) versus planktonic bacteria; format: cell-based; details: ATCC19606; Acinetobacter baumannii ATCC 19606; 16-20 h; mode of three independent experiments; read-out: MIC, Ab ATCC 19606
E. coli ATCC BAA-2452 = assay: as above; format: cell-based; details: Escherichia coli ATCC BAA-2452; 16-20 h; mode of three independent experiments; read-out: MIC, Ec ATCC BAA 2452
E. coli NCTC 13476 = assay: as above; format: cell-based; details: NCTC13476; Escherichia coli NCTC 13476; 16-20 h; mode of three independent experiments; read-out: MIC, Ec NCTC 13476
E. coli MG1655 = assay: as above; format: cell-based, Escherichia coli; details: Escherichia coli, MG1655, read-out: MIC, Ec MG1655 WT
[11] = test system: Neisseria meningitidis ATCC 13090; assay: as above; format: cell-based; details: ATCC13090, 16-20 h, mode of three independent experiments
E. coli MG1655 S83L = format: cell-based, Escherichia coli; details: compared to the isogenic parent strain E. coli MG1655; S83L mutation on DNA gyrase subunit GyrA
E. coli MG1655 D87G = format: cell-based, Escherichia coli; details: compared to the isogenic parent strain E. coli MG1655; D87G mutation on DNA gyrase subunit GyrA
[12] = test system: Enterococcus faecalis ATCC 29212; assay: MIC, broth microdilution (CLSI) versus planktonic bacteria; format: cell-based; details: ATCC29212, 16-20 h, mode of three independent experiments, read-out: MIC, Ef ATCC 29212
[13] = test system: Enterococcus faecium ATCC 19434; assay: as above; format: cell-based; details: ATCC19434, 16-20 h, mode of three independent experiments, read-out: MIC, Efm ATCC 19434
[14] = test system: fluoroquinolone-resistant Enterococcus faecium ATCC 700221; assay: as above; format: cell-based; details: ATCC700221, 16-20 h, mode of three independent experiments, read-out: MIC, Efm ATCC 700221

SMILES	MIC [1]	MIC [2]	MIC [3]	MIC [4]	MIC [5]	MIC [6]	MIC [7]	MIC [8]	IC50 [9]	MIC [10]	MIC (E. coli ATCC BAA-2452)	MIC (E. coli NCTC 13476)	MIC (E. coli MG1655)	MIC [11]	Fold increase in MIC, E. coli MG1655 S83L (E. coli MG1655 S83L)	Fold increase in MIC, E. coli MG1655 D87G (E. coli MG1655 D87G)	MIC [12]	MIC [13]	MIC [14]
NCCOc1ccc2ccc(=O)n(CCN[C@H]3CC[C@H]4[C@@H](C3)OC(=O)N4c3ccc4c(n3)NC(=O)CO4)c2n1 [Compound 10, 1-(2-{[(3aS,6S,7aR)-2-oxo-3-{3-oxo-2H,3H,4H-pyrido[3,2-b][1,4]oxazin-6-yl}-octahydro-1,3-benzoxazol-6-yl]amino}ethyl)-7-(2-aminoethoxy)-1,2-dihydro-1,8-naphthyridin-2-one]	> 100 µg/mL	> 100 µg/mL	1 to 10 µg/mL (≈ 1.87 to 18.7 µM)	10 to 100 µg/mL (≈ 18.7 to 187 µM)	> 100 µg/mL	1 to 10 µg/mL (≈ 1.87 to 18.7 µM)	10 to 100 µg/mL (≈ 18.7 to 187 µM)	10 to 100 µg/mL (≈ 18.7 to 187 µM)	> 100 µg/mL	–	–	–	–	–	–	–	–	–	–
N#Cc1cccc(-c2cccc(CN[C@H]3CC[C@H]4[C@@H](C3)OC(=O)N4c3ccc4c(n3)NC(=O)CO4)c2O)n1 [Compound 18, 6-[3-({[(3aS,6S,7aR)-2-oxo-3-{3-oxo-2H,3H,4H-pyrido[3,2-b][1,4]oxazin-6-yl}-octahydro-1,3-benzoxazol-6-yl]amino}methyl)-2-hydroxyphenyl]pyridine-2-carbonitrile]	< 1 µg/mL	< 1 µg/mL	< 1 µg/mL	1 to 10 µg/mL (≈ 1.95 to 19.5 µM)	–	1 to 10 µg/mL (≈ 1.95 to 19.5 µM)	< 1 µg/mL	< 1 µg/mL	1 to 10 µg/mL (≈ 1.95 to 19.5 µM)	< 1 µg/mL	1 to 10 µg/mL (≈ 1.95 to 19.5 µM)	1 to 10 µg/mL (≈ 1.95 to 19.5 µM)	< 1 µg/mL	< 1 µg/mL	2 fold	1 fold	–	–	–
N#Cc1ccc2ccc(=O)n(CCN(CCN)[C@H]3CC[C@H]4[C@@H](C3)OC(=O)N4c3ccc4c(n3)NC(=O)CO4)c2c1 [Compound 58, 1-(2-{[(3aS,6S,7aR)-2-oxo-3-{3-oxo-2H,3H,4H-pyrido[3,2-b][1,4]oxazin-6-yl}-octahydro-1,3-benzoxazol-6-yl](2-aminoethyl)amino}ethyl)-2-oxo-1,2-dihydroquinoline-7-carbonitrile]	> 100 µg/mL	> 100 µg/mL	10 to 100 µg/mL (≈ 18.4 to 184 µM)	> 100 µg/mL	1 to 10 µg/mL (≈ 1.84 to 18.4 µM)	1 to 10 µg/mL (≈ 1.84 to 18.4 µM)	< 1 µg/mL	> 100 µg/mL	> 100 µg/mL	–	–	–	–	–	–	–	–	–	–
COc1cnc2ccc(=O)n(CCN[C@H]3CC[C@H]4[C@H](C3)OC(=O)N4c3ccc4c(n3)NC(=O)CS4)c2c1 [Compound 81, 1-(2-{[(3aS,6S,7aS)-2-oxo-3-{3-oxo-2H,3H,4H-pyrido[3,2-b][1,4]thiazin-6-yl}-octahydro-1,3-benzoxazol-6-yl]amino}ethyl)-7-methoxy-1,2-dihydro-1,5-naphthyridin-2-one]	< 1 µg/mL	< 1 µg/mL	< 1 µg/mL	< 1 µg/mL	–	1 to 10 µg/mL (≈ 1.91 to 19.1 µM)	< 1 µg/mL	< 1 µg/mL	10 to 100 µg/mL (≈ 19.1 to 191 µM)	< 1 µg/mL	< 1 µg/mL	< 1 µg/mL	< 1 µg/mL	–	1 fold	1 fold	< 1 µg/mL	< 1 µg/mL	< 1 µg/mL
CCCOc1ccc2ccc(=O)n(CCN[C@H]3CC[C@H]4[C@H](C3)OC(=O)N4c3ccc4c(n3)NC(=O)CO4)c2c1 [Compound 91, 1-(2-{[(3aS,6S,7aS)-2-oxo-3-{3-oxo-2H,3H,4H-pyrido[3,2-b][1,4]oxazin-6-yl}-octahydro-1,3-benzoxazol-6-yl]amino}ethyl)-7-propoxy-1,2-dihydroquinolin-2-one]	< 1 µg/mL	1 to 10 µg/mL (≈ 1.87 to 18.7 µM)	< 1 µg/mL	< 1 µg/mL	–	10 to 100 µg/mL (≈ 18.7 to 187 µM)	< 1 µg/mL	< 1 µg/mL	10 to 100 µg/mL (≈ 18.7 to 187 µM)	< 1 µg/mL	< 1 µg/mL	1 to 10 µg/mL (≈ 1.87 to 18.7 µM)	< 1 µg/mL	–	0.5 fold	1 fold	1 to 10 µg/mL (≈ 1.87 to 18.7 µM)	1 to 10 µg/mL (≈ 1.87 to 18.7 µM)	1 to 10 µg/mL (≈ 1.87 to 18.7 µM)
